Data from patent US12570975B2, “Composition for diagnosis or treatment of a condition associated with increased activity of EIF4E comprising an EIF4E inhibitor” (SoVarGen Co., Ltd., priority 2019, dated 2026).

Key:
eIF4E mRNA = assay: Inhibitory concentration (IC50) against eIF4E mRNA, real-time PCR, HEK293T; format: cell-based, human
Method: In order to calculate IC50 values for ASO sequences, ASO candidates are transfected at different concentrations (20 nM, 80 nM, 320 nM) into the human cell line HEK293T (human) with the aid of iN-fect™ in vitro transfection reagent (15081, iNtRON, Republic of Korea). Twenty four hours after ASO transfection, the cells were harvested and analyzed for eIF4E mRNA expression reduction by real-time PCR. Relative eIF4E mRNA expression was normalized to the expression level using GAPDH as an internal control and was evaluated using the 2^−ΔΔCq method.
For comparison of inhibitory concentrations (IC50) among ASO candidates, a dose-response curve was derived by normalized nonlinear regression using Prism8 program (GraphPad Software, USA) (FIG. 16e).

[1] = test system: epilepsy models (mTOR p.C1483Y or mTOR p.L2427P); assay: Seizure monitoring after ICV injection of ASO in FMCD epilepsy models; format: in vivo, mouse; conditions: ICV injection 100-500 μg, day 3 to day 70 after injection
Method: For this experiment, animal models established using pCIG-mTOR p.C1483Y-IRES-EGFP and pCIG-mTOR p.L2427P-IRES-EGFP of Example 1 were used while animal models established with pCIG-mTOR (WT)-IRES-EGFP […] served as a control. The ASOs were each intracerebroventricularly injected (ICV injection) at a dose of 100-500 μg to the brains of the mice that had been identified to undergo epileptic seizure. From day 3 after ASO injection to up to day 70, 12-hour video were recorded for seizure monitoring 2-3 times a week per mouse.

eIF4E = assay: Immunofluorescence of eIF4E in brain cells after ASO injection; format: in vivo, mouse; conditions: week 4-5 after ICV injection, FMCD models
Method: (§1) Week 4-5 after intracerebroventricular injection of ASO into the animal models established using pCIG-mTOR mutant-IRES-EGFP vector of Example 1, the brain was removed, fixed, sectioned, and immunostained.
(§2) Immunostaining with antibodies against ADK, CREB1, IRSp53, and eIF4E and Imaging with fluorescence were conducted in the same manner as in Example 2.

ADK, IRSp53, and CREB1 = assay: Immunofluorescence of ADK, IRSp53 and CREB1 after ASO injection; format: in vivo, mouse; conditions: week 4-5 after ICV injection
Method: as §1, §2

[2] = test system: GFP-labeled mutant cells of FMCD animal models; assay: Neuronal (mutant) cell size after ICV injection of ASO; format: in vivo, mouse; conditions: intractable epilepsy models, week 4-5 after ICV injection
Method: Week 4-5 after intracerebroventricular injection of ASO into the FMCD animal models established using pCIG-mTOR mutant-IRES-EGFP vector of Example 1, the brain was removed, fixed, sectioned, and immunostained. For neuronal cell size (FIG. 22), GFP (green)-labeled mutant cells (ASO control or ASO eIF4E) were measured for size in the obtained mouse brain tissues.

C57BL/6J mice [3] = conditions: mouse, in vivo
Method: In this regard, ASO was administered by ICV injection. The ASO used in this experiment was ASO #77.
The 3-Chamber test measures social interaction and preference for social novelty. This apparatus consisted of three chambers with dimensions of 12×20×26 cm for the center chamber and dimensions of 14×20×26 cm for the opposite side chambers. Each of the opposite side chambers included a plastic cage (11 cm in diameter, 2.15 cm in height) for an object or stranger mouse in a corner. This experiment consisted of three sessions of habituation (10 min), exploring object/mouse (10 min), and exploring familiar/new mouse (10 min). In the second session, a WT stranger mouse was randomly placed in a plastic cage while the opposite plastic cage was empty. The mouse was allowed to freely explore the whole apparatus. The time spent in each chamber was measured and then used for the subsequent social interaction test. In the last session, a new WT stranger was placed in the empty plastic cage.

[4] = test system: FMCD and epilepsy animal models (mTOR-p.C1483Y, mTOR-p.L2427P); format: in vivo, mouse
Method: Behaviors were recorded and analyzed using EthoVision XT (Noldus).
(§3) Experiments were performed on the FMCD and epilepsy animal models (mTOR-p.C1483Y, mTOR-p.L2427P) of Example 7-1 and the control normal animal models (mTOR-WT). The same sheIF4E as that described in Example 2 was used. Week 2 after sheIF4E injection, the handling was performed in the animals. Week 3 after sheIF4E injection, the animals were subjected to the behavioral tests.
(§4) The epilepsy animal models were subjected to the substantially same behavioral abnormality assay as in Example 6. The results are depicted in FIGS. 28 and 29.
(§5) Briefly, ASO #77 was administered by ICV injection to the FMCD and epilepsy animal models were generated with the pCIG-mTOR mutant-IRES-EGFP of Example 1. ASO #77 was evaluated for therapeutic potential for neuropsychiatric disorder accompanying the FMCD epilepsy animal models in the substantially same manner as in Example 6.

[5] = test system: FMCD and epilepsy animal models (mTOR-p.C1483Y, mTOR-p.L2427P); assay: Marble burying test, FMCD epilepsy models; format: in vivo, mouse; conditions: ASO-eIF4E models compared to ASO-control models
Method: A mouse was placed in the cage.
as §3, §4, §5

[6] = test system: FMCD and epilepsy animal models (mTOR-p.C1483Y, mTOR-p.L2427P); assay: Sucrose preference test, FMCD epilepsy models; format: in vivo, mouse; conditions: ASO-eIF4E models compared to ASO-control models
Method: Each of mice was habituated for 3-5 days in a cage with two selectable water bottles presented. Thereafter, the mice were each placed in the same cage as the habituation cage at the day of experiment. The mice were presented with two dual bottles, one containing tap water and the other containing 1% sucrose solution. Water and sucrose solution intake was measured after 24 hours and sucrose preference was calculated according to volume of sucrose intake/total volume of fluid intake×100%.
The same sheIF4E as that described in Example 2 was used. Week 2 after sheIF4E injection, the handling was performed in the animals. Week 3 after sheIF4E injection, the animals were subjected to the behavioral tests.
The epilepsy animal models were subjected to the substantially same behavioral abnormality assay as in Example 6.
as §5

[7] = test system: mutant-expressing cells in the brain tissue; conditions: mouse, in vivo
[8] = over 8 weeks after ASO injection, 8-week-old mTOR mutation C57BL/6J mice
C57BL/6J mice [9] = conditions: mouse, in vivo; remark: listed apart in the source
C57BL/6J mice [10] = conditions: mouse, in vivo; remark: listed apart in the source
C57BL/6J mice [11] = conditions: male or female mice injected with ASO

Substance: ASO #77: eIF4E-targeting antisense oligonucleotide of SEQ ID NO: 77, 2′-MOE gapmer, all phosphorothioate linkages (antisense GATCCTTCACCAATGTTACA; all phosphorothioate, sugars by position and methylation of C not given here; 2'-MOE gapmer)
- IC50 (eIF4E mRNA; HEK293T, 20, 80, 320 nM, 24 h after transfection, read-out: IC50 against eIF4E mRNA expression): 53.8 nM
- eIF4E mRNA expression compared to the mismatch ASO (eIF4E mRNA; HEK293T, at all of the doses (20 nM, 80 nM, 320 nM)): inhibited
- seizure frequency [1]: remarkably reduced
- eIF4E expression in brain cells (immunofluorescence) (eIF4E): reduction of eIF4E expression
- expression of ADK, IRSp53, and CREB1 in the mutation cells (ADK, IRSp53, and CREB1): rescue of the expression of ADK, IRSp53, and CREB1 to a normal level
- mutant cell size [2]: therapeutic effects
- time spent in sniffing zone (index of sociality) (C57BL/6J mice [3]): not changed
- time spent in center (index of anxiety) ([4]; ASO-eIF4E models compared to ASO-control models): increased
- dyskinesia (behavior test) ([4]; mouse, in vivo): no dyskinesia
- number of buried marbles (repetitive behavior) [5]: increased
- % sucrose preference [6]: increased
- delivery into mutant-expressing cells in the brain tissue [7]: effectively delivered
- body weight [8]: recovered to normal conditions
- dyskinesia (behavior test) (C57BL/6J mice [9]): no dyskinesia
- time spent in center (index of anxiety) (C57BL/6J mice [9]): not changed
- number of buried marbles (index of repetitive behavior) (C57BL/6J mice [10]): not changed
- % sucrose preference (C57BL/6J mice [11]): not changed
